Assay results from US20100286076A1, “ECTOPARASITICIDAL METHODS AND FORMULATIONS” (priority 2009, published 2010).

Assays:
[1] = tested on: adult cat flea, Ctenocephalides felis; assay: Oral administration per os to dogs, experimental adult cat flea infestation, comb counts; format: in vivo
Experimental: (§1) Oral administration per os to dogs. Given the above data, investigation into oral efficacy in dogs was begun. The investigation was conducted to evaluate 1) efficacy for a point dose of 30 mg/kg, against experimental, concurrent infestations with the adult cat flea, Ctenocephalides felis; adult stage American dog ticks, Dermacentor variabilis; and adult stage kennel ticks, Rhipicephalus sanguineus; 2) plasma concentrations of the 30 mg/kg treated dogs; and 3) efficacy for point dosages of either 50 mg/kg or 100 mg/kg, against experimental infestations with adult stage kennel ticks, R. sanguineus.
(§2) Sixteen dogs were selected for two groups of eight dogs (4 male: 4 female) per group. One treatment group received spinetoram, while the other group was left untreated. The dogs were housed individually in concrete-floored chain-link kennels both inside and outside. During the study period the dogs were fed a dry dog chow, except for the day of treatment (day 0) when they received wet canned food. The dogs had ad libitum access to water.
The first group on day 0 received one or more gelatin capsules containing spinetoram powder by mouth, in the amount of 30 mg/kg, while the untreated group received placebo. For the evaluation of the higher doses (50 and 100 mg/kg) for efficacy against R. sanguineus, dogs from the 30 mg/kg group were re-dosed at the higher levels approximately 2.5 months after the low dose administration, once the flea efficacy data had been collected.
Each dog was experimentally infested with about 100 adult fleas, and 50 ticks of each species on test days—1,5,12,19, 28, 35, and 42, with additional flea infestations conducted on days 49 and 56. Knockdown assessments against both ticks and fleas were conducted 24 hours after dosing. All subsequent counts were conducted 48 hours after infestation. For the higher doses, the dogs were infested with around 50 R. sanguineus ticks one day before re-dosing and again 5 days post re-dosing, with comb counts conducted approximately 24 hours thereafter. Knockdown activity (Day 1) was determined using 24 hr post-dosing comb counts. For all post-treatment residual tick counts, the comb count occurred 48 hours post infestation. Blood samples were drawn on days 14, 21, 28, and 35 to determine concentration of spinetoram in plasma.

House Fly = assay: Adult House Fly Assay (AhsF), feeding on compound-soaked dental wicks, 24 h mortality; set-up: species or system Musca domestica; details: adult house flies
Experimental: Adult Stable or House Fly Assay (ASF, AhsF). This assay is conducted essentially as described in White, W. H., S. M. Bauer, X. Zhao et al., Comparison of in vitro and in vivo ectoparasiticide activity of an experimental benzimidazole-carbamate with permethrin and amitraz, J. Med. Entomol. 42, 207-211 (2005); and White, W. H., C. M. McCoy, J. A. Meyer et al., Knockdown and mortality comparisons among spinosad-, imidacloprid-, and methomyl-containing baits against susceptible Musca domestica (Diptera: Muscidae) under laboratory conditions, J. Econ. Entomol. 100, 155-163 (2007).
Test material is formulated in DMSO at 10 mM. Doubling dilutions in like solvent are made to yield 10 testing levels. Materials are diluted in either bovine serum (stable flies) or 5% glucose solution (house flies) to obtain desired exposure concentrations from 200-0.39 μM. Approximately 3 ml of diluted test material is placed into a test tube (n=3 per test level) and a dental wick is used to absorb fluid. One dental wick is placed into a small weigh boat inside of a 100 mm Petri dish. Approximately 10 mixed-sex adult flies are anesthetized using carbon dioxide and counted into each dish. Dishes are incubated at 27° C. and 50-70% relative humidity. Flies recover from anesthesia and feed on compound-soaked dental wicks. After 24 h, live/dead flies are enumerated. Nonlinear regression is used to model dose-mortality relationship and obtain relative potency (LD50) data compared to contemporaneous controls (solvent-only or permethrin).

[2] = tested on: adult stage American dog ticks, Dermacentor variabilis; assay: Oral administration per os to dogs, experimental American dog tick infestation; format: in vivo; details: at the doses tested (30 mg/kg)
Experimental: as §1
as §2, with “water. […]” for “water.”
Each dog was experimentally infested with about 100 adult fleas, and 50 ticks of each species on test days—1,5,12,19, 28, 35, and 42, with additional flea infestations conducted on days 49 and 56. […] Knockdown activity (Day 1) was determined using 24 hr post-dosing comb counts. […]

## Spinetoram
[1]; oral 30 mg/kg, Day 7
  geometric mean percent flea reduction, Day 7: 100%
[1]; oral 30 mg/kg, Day 14
  geometric mean percent flea reduction, Day 14: 100%
[1]; oral 30 mg/kg, Day 21
  geometric mean percent flea reduction, Day 21: 99.5%
[1]; oral 30 mg/kg, Day 30
  geometric mean percent flea reduction, Day 30: 100%
[1]; oral 30 mg/kg, Day 37
  geometric mean percent flea reduction, Day 37: 98.9%
[1]; oral 30 mg/kg, Day 44
  geometric mean percent flea reduction, Day 44: 99.7%
[1]; oral 30 mg/kg, Day 51
  geometric mean percent flea reduction, Day 51: 98.2%
[1]; oral 30 mg/kg, Day 58
  geometric mean percent flea reduction, Day 58: 96.9%
[1]; oral 30 mg/kg, Knockdown
  geometric mean percent flea reduction, Knockdown: 99.7%
[1]; oral point dose 30 mg/kg, extends beyond 8 weeks
  residual control: > 97%
House Fly; 24 h, 5% glucose solution, read-out: Potency (24 h EC50 μM)
  EC50: 2.18 µM
House Fly; 24 h EC50
  Spinetoram/Spinosad Potency Ratio: 5.5
[2]
  activity against ticks: did not demonstrate statistically significant activity
